Experimental data taken from patent publication US11180474B2 (BRISTOL-MYERS SQUIBB COMPANY, priority 2016, dated 2021).

Experiments:
human TLR8 = target: T1, human TLR8 (Homo sapiens, UniProt Q9NR97); assay: TLR8 inhibition reporter assay (HEK-Blue cells, SEAP reporter, R848 stimulation); assay type: cell-based; settings: HEK-Blue cells overexpressing human TLR8, R848 15.9 μM
T1 construct: host or cells: HEK-Blue cells
T1 sequence (Q9NR97 27-1041): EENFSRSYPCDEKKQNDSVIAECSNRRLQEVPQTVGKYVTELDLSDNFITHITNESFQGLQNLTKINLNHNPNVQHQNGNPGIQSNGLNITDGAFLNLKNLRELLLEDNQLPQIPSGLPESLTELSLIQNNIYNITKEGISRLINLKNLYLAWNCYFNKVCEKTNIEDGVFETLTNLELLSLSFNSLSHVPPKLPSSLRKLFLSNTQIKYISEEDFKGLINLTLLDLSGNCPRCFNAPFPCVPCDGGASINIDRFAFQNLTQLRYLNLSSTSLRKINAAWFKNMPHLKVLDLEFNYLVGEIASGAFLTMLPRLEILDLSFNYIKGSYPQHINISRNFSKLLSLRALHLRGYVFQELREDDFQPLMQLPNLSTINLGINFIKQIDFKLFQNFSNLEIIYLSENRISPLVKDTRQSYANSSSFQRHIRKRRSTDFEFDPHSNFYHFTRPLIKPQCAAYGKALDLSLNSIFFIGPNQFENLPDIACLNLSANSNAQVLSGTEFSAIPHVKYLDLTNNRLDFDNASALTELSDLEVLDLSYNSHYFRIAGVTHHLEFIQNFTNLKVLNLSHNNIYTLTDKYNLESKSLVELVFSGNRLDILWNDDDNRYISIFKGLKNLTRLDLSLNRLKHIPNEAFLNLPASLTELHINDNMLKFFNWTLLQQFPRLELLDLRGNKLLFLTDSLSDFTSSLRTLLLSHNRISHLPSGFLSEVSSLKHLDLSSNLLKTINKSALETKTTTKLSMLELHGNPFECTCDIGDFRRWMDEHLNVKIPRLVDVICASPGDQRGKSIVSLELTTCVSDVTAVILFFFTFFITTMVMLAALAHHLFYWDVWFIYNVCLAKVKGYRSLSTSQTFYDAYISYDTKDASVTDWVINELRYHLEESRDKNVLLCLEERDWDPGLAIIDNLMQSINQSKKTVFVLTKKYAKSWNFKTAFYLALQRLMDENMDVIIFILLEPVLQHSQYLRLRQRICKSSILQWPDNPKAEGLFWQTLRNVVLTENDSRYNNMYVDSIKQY
In short: (§1)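 Cells (15000/well for TLR7, 20,000 for TLR8) were treated with compounds over 0.05 nM-50 μM final. After 22 h at 37° C, 5% CO2, SEAP was measured with HEK-Blue Detection reagent; percent inhibition was taken as reduction of agonist-plus-DMSO signal relative to a known inhibitor.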

human TLR7 = target: T2, human TLR7 (Homo sapiens, UniProt Q9NYK1); assay: TLR7 inhibition reporter assay (HEK-Blue cells, SEAP reporter, gardiquimod stimulation); assay type: cell-based; settings: HEK-Blue cells overexpressing human TLR7, gardiquimod 7.5 μM
T2 construct: host or cells: HEK-Blue cells
T2 sequence (Q9NYK1 27-1049): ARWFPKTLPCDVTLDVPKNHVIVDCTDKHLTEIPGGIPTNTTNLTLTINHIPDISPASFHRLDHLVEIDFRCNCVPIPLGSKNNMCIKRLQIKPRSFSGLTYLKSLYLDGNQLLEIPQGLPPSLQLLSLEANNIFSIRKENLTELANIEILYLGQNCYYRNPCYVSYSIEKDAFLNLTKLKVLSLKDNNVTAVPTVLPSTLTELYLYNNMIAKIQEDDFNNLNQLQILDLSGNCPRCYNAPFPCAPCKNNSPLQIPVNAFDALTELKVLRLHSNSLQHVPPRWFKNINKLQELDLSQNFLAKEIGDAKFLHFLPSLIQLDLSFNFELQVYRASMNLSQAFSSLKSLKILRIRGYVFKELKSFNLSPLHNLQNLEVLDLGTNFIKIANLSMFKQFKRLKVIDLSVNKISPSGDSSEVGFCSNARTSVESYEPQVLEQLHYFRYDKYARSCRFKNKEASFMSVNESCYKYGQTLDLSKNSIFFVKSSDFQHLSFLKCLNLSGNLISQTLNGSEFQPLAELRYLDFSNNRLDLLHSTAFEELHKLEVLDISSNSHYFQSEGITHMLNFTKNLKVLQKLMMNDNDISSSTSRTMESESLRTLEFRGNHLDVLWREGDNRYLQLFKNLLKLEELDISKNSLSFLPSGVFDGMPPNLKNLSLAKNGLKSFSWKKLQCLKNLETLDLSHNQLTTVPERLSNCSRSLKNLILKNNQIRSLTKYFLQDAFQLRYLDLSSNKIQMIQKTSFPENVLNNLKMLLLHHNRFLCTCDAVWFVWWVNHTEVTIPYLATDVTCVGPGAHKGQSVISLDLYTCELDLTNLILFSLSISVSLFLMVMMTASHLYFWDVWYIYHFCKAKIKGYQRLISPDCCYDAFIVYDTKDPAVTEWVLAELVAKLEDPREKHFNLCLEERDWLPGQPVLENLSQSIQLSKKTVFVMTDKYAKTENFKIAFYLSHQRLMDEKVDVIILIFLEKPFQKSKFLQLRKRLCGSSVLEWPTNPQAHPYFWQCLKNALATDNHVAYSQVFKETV
In short: as §1

For `COc1ccc(-c2[nH]c3ccc(C4CCN(C(=O)CN5CCC[C@H](C(=O)N6CCN(c7cccc(C(F)(F)F)c7)CC6)C5)CC4)cc3c2C(C)C)cc1OC` [Example 290, (S)-1-(4-(2-(3,4-dimethoxyphenyl)-3-isopropyl-1H-indol-5-yl)piperidin-1-yl)-2-(3-(4-(3-(trifluoromethyl)phenyl)piperazine-1-carbonyl)piperidin-1-yl)ethan-1-one], the IC50 (human TLR8) was 803 nM and the IC50 (human TLR7) was 1740 nM.
For `CCN(CC)C(=O)C1CCCN(CC(=O)N2CCC(c3ccc4[nH]c(-c5ccc(OC)c(OC)c5)c(C(C)C)c4c3)CC2)C1` (stereo not drawn) [Example 248, 1-(2-(4-(2-(3,4-dimethoxyphenyl)-3-isopropyl-1H-indol-5-yl)piperidin-1-yl)-2-oxoethyl)-N,N-diethylpiperidine-3-carboxamide], the IC50 (human TLR8) was 22 nM and the IC50 (human TLR7) was 33 nM.
`COc1ccc(-c2[nH]c3ccc(C4CCN(Cc5cnn(C)c5)CC4)cc3c2C(C)C)cc1OC` [Example 259, 2-(3,4-dimethoxyphenyl)-3-isopropyl-5-(1-((1-methyl-1H-pyrazol-4-yl)methyl)piperidin-4-yl)-1H-indole] gave an IC50 (human TLR8) of 11 nM and an IC50 (human TLR7) of 40 nM.
`COc1ccc(-c2[nH]c3ccc(C4CCN(C(=O)CN5CCC[C@@H](C(=O)N6CC7CNCC7C6)C5)CC4)cc3c2C(C)C)cc1OC` (stereo partly drawn) [Example 310, 1-(4-(2-(3,4-dimethoxyphenyl)-3-isopropyl-1H-indol-5-yl)piperidin-1-yl)-2-((3R)-3-(octahydropyrrolo[3,4-c]pyrrole-2-carbonyl)piperidin-1-yl) ethan-1-one] gave an IC50 (human TLR8) of 488 nM and an IC50 (human TLR7) of 290 nM.
For `CCN(CC)C(=O)C1CCCN(CC(=O)N2CCC(c3ccc4[nH]c(-c5ccc(OC)c(OC)c5)c(C(C)C)c4c3)CC2)C1` (stereo not drawn) [Example 224, 1-(2-(4-(2-(3,4-dimethoxyphenyl)-3-isopropyl-1H-indol-5-yl)piperidin-1-yl)-2-oxoethyl)-N,N-diethylpiperidine-3-carboxamide], the IC50 (human TLR8) was 27 nM and the IC50 (human TLR7) was 46 nM.
`COc1ccc(-c2[nH]c3ccc(C4CCNCC4O)cc3c2C(C)C)cc1OC` (single isomer, unassigned) [Example 318, 4-(2-(3,4-dimethoxyphenyl)-3-isopropyl-1H-indol-5-yl)piperidin-3-ol 2,2,2-trifluoroacetate] gave an IC50 (human TLR8) of 6070 nM and an IC50 (human TLR7) of 3280 nM.
`COc1ccc(-c2[nH]c3ccc(C4CCN(C(=O)CN5CCC[C@H](C(=O)N6CCN(CCN7CCCC7)CC6)C5)CC4)cc3c2C(C)C)cc1OC` [Example 293, (S)-1-(4-(2-(3,4-dimethoxyphenyl)-3-isopropyl-1H-indol-5-yl)piperidin-1-yl)-2-(3-(4-(2-(pyrrolidin-1-yl)ethyl)piperazine-1-carbonyl)piperidin-1-yl)ethan-1-one] showed an IC50 (human TLR8) of 33 nM and an IC50 (human TLR7) of 28 nM.
`COc1ccc(-c2[nH]c3ccc(C4CCN(C(=O)CO)CC4)cc3c2C(C)C)cc1OC` [Example 313, 1-(4-(2-(3,4-dimethoxyphenyl)-3-isopropyl-1H-indol-5-yl)piperidin-1-yl)-2-hydroxyethanone] gave an IC50 (human TLR8) of 496 nM and an IC50 (human TLR7) of 73 nM.
In the case of `CCN(CC)C(=O)C1CCCN(CC(=O)N2CCC(c3ccc4[nH]c(-c5ccc(OC)c(OC)c5)c(C(C)C)c4c3)CC2)C1` (stereo not drawn) [Example 247, 1-(2-(4-(2-(3,4-dimethoxyphenyl)-3-isopropyl-1H-indol-5-yl)piperidin-1-yl)-2-oxoethyl)-N,N-diethylpiperidine-3-carboxamide], the IC50 (human TLR8) is reported as 38 nM and the IC50 (human TLR7) is reported as 40 nM.
In the case of `COc1ccc(-c2[nH]c3ccc(C4CCN(C(=O)CN5CCC(N6CCN(C)CC6)CC5)CC4)cc3c2C(C)C)cc1OC` [Example 241, 1-(4-(2-(3,4-dimethoxyphenyl)-3-isopropyl-1H-indol-5-yl)piperidin-1-yl)-2-(4-(4-methylpiperazin-1-yl)piperidin-1-yl)ethan-1-one], the IC50 (human TLR8) is reported as 13 nM and the IC50 (human TLR7) is reported as 12 nM.
`COc1ccc(-c2[nH]c3ccc(C4CCN(C(=O)CN5CCC(CO)CC5)CC4)cc3c2C(C)C)cc1OC` [Example 243, 1-(4-(2-(3,4-dimethoxyphenyl)-3-isopropyl-1H-indol-5-yl)piperidin-1-yl)-2-(4-(hydroxymethyl)piperidin-1-yl)ethan-1-one] gave an IC50 (human TLR8) of 16 nM and an IC50 (human TLR7) of 55 nM.
With `COc1ccc(-c2[nH]c3ccc(C4CCN(C(=O)CNC[C@@H](F)C(C)(C)O)CC4)cc3c2C(C)C)cc1OC` [Example 251, (R)-1-(4-(2-(3,4-dimethoxyphenyl)-3-isopropyl-1H-indol-5-yl)piperidin-1-yl)-2-((2-fluoro-3-hydroxy-3-methylbutyl)amino) ethan-1-one] the IC50 (human TLR8) was 750 nM and the IC50 (human TLR7) was 372 nM.
`COc1ccc(-c2[nH]c3ccc(C4CCN(C(=O)CN5CCN(C(C)C)CC5)CC4)cc3c2C(C)C)cc1OC` [Example 240, 1-(4-(2-(3,4-dimethoxyphenyl)-3-isopropyl-1H-indol-5-yl)piperidin-1-yl)-2-(4-isopropylpiperazin-1-yl)ethan-1-one] was tested, and the IC50 (human TLR8) was 34 nM and the IC50 (human TLR7) was 11 nM.
Work on `COc1ccc(-c2[nH]c3ccc(C4CCN(C(=O)CN5CCC[C@H](C(=O)N6CCN(C(C)=O)CC6)C5)CC4)cc3c2C(C)C)cc1OC` [Example 284, (S)-2-(3-(4-acetylpiperazine-1-carbonyl)piperidin-1-yl)-1-(4-(2-(3,4-dimethoxyphenyl)-3-isopropyl-1H-indol-5-yl)piperidin-1-yl)ethan-1-one] yielded an IC50 (human TLR8) of 25 nM and an IC50 (human TLR7) of 39 nM.
`COc1ccc(-c2[nH]c3ccc(C4CCN(Cc5nccn5C)CC4)cc3c2C(C)C)cc1OC` [Example 262, 2-(3,4-dimethoxyphenyl)-3-isopropyl-5-(1-((1-methyl-1H-imidazol-2-yl)methyl)piperidin-4-yl)-1H-indole] showed an IC50 (human TLR8) of 23 nM and an IC50 (human TLR7) of 61 nM.
`COc1ccc(-c2[nH]c3ccc(C4CCN(C(=O)CN5CCC[C@@H](C(=O)N6CCN(CCN7CCCC7)CC6)C5)CC4)cc3c2C(C)C)cc1OC` [Example 307, (R)-1-(4-(2-(3,4-dimethoxyphenyl)-3-isopropyl-1H-indol-5-yl)piperidin-1-yl)-2-(3-(4-(2-(pyrrolidin-1-yl)ethyl)piperazine-1-carbonyl)piperidin-1-yl)ethan-1-one] was tested, and the IC50 (human TLR8) was 38 nM and the IC50 (human TLR7) was 52 nM.
With `COc1ccc(-c2[nH]c3ccc(C4CCN(C(=O)CN5CCCC(CO)C5)CC4)cc3c2C(C)C)cc1OC` (stereo not drawn) [Example 226, 1-(4-(2-(3,4-dimethoxyphenyl)-3-isopropyl-1H-indol-5-yl)piperidin-1-yl)-2-(3-(hydroxymethyl)piperidin-1-yl)ethan-1-one] the IC50 (human TLR8) was 17 nM and the IC50 (human TLR7) was 16 nM.
For `COc1ccc(-c2[nH]c3ccc(C4CCN(C(=O)CN5CCC[C@H](C(=O)NC(C)C)C5)CC4)cc3c2C(C)C)cc1OC` [Example 285, (S)-1-(2-(4-(2-(3,4-dimethoxyphenyl)-3-isopropyl-1H-indol-5-yl)piperidin-1-yl)-2-oxoethyl)-N-isopropylpiperidine-3-carboxamide], the IC50 (human TLR8) was 37 nM and the IC50 (human TLR7) was 55 nM.
